Biological target: T1, human OX2 receptor (Homo sapiens, UniProt O43614)
T1 sequence (O43614 1-444): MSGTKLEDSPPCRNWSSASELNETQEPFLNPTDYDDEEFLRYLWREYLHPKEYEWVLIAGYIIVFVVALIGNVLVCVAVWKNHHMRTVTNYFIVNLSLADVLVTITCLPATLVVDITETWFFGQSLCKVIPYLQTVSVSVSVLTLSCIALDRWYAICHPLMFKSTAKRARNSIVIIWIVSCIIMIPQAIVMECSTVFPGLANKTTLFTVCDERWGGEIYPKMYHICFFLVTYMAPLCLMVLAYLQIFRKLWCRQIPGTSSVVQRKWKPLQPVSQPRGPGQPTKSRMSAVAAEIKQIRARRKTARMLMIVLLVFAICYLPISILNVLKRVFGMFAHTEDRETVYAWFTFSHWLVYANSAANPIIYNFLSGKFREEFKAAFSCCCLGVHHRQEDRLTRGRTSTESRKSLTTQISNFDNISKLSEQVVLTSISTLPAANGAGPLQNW
Test: IPone accumulation assay, CHO cells expressing OX2 (antagonism of orexin A)
Format: cell-based
Conditions: CHO human OX2, orexin A EC80 challenge (40 nM), read-out: fpKb average OX2 (converted)
Procedure: Generation of CHO stable cell lines expressing the human OX1R and OX2R. Stable cell lines for the human OX1R and OX2R receptors were generated through the transfection of CHO cells using the transfection reagent Genejuice (Novagen number 70967) and cDNA coding for either the human OX1R or OX2R. Cells were cultured in Sigma Nutrient Mixture F-12 Ham media (catalog number N6658) supplemented with 10% heat-inactivated FBS. Forty-eight hours after transfection, cells were harvested and placed under geneticin selection by culturing in Sigma Nutrient Mixture F-12 Ham media supplemented with 10% heat-inactivated FBS and geneticin (ThermoFisher Catalog number: 10131035). Selection of the final stable clone for each receptor was made on the basis of receptor expression, assay signal to noise and robustness though increasing passage. Selected clones for the human OX1R and OX2R were then frozen down into liquid nitrogen using Cell Freezing Medium-DMSO (Sigma-Aldrich catalog number: C6164).
IPone accumulation assay. A CHO cell line stably expressing either human OX1 or OX2 receptor was used with the IPone HTRF assay kit (CisBio: Part #62IPAPEJ) to measure receptor activation. The assay was optimised to measure the ability (potency; fpKb) of antagonists to reduce agonist (orexin A)-induced inositol phosphate turnover. Briefly, cells were plated onto half area 96-well white walled plates at a density of 12,500 cells/well. Sixteen hours post-plating cell growth media was replaced with antagonist concentration-response curve diluted in stimulation buffer (supplied with the kit). Cells were incubated in a humidified incubator (37° C.) for 30 min before an EC80 challenge concentration (˜20 nM (OX1) and 40 nM (OX2)) of orexin A (Tocris catalogue number 1455). After 30 min stimulation in a humidified incubator (37° C.) the assay was terminated by the addition of detection mixture as per manufacturer's instructions. The concentration of compound which reduced orexin-A stimulated turnover of inositol phosphates by 50% (IC50) was calculated by fitting to a four parameter sigmoidal dose response curve. The IC50 values were converted to fpKB values using the orexin A pEC50 value estimated on each plate as well as the challenge concentration interpolated from the orexin A control curve.

Point of comparison: `[2H]C([2H])([2H])Oc1cc(F)c(CN2C(=O)N(c3cnc(OC)c(C(C)(F)F)c3)CCc3c(F)cccc32)c(F)c1` [Example 6, 3-[5-(1,1-difluoroethyl)-6-methoxypyridin-3-yl]-1-{2,6-difluoro-4-[(^2H3)methyloxy]benzyl}-6-fluoro-1,3,4,5-tetrahydro-2H-1,3-benzodiazepin-2-one], Kb 0.398 µM. Against it:
- COc1ncc(C2CCc3c(F)cccc3N(Cc3c(F)cc(Br)cc3F)C2=O)cc1S(C)(=O)=O (racemic) [Example 19, 1-(4-bromo-2,6-difluorobenzyl)-6-fluoro-3-[6-methoxy-5-(methylsulfonyl)pyridin-3-yl]-1,3,4,5-tetrahydro-2H-1-benzazepin-2-one] — higher, > 3.16 µM
- COc1ncc(C2CCc3c(F)cccc3N(Cc3c(F)cc(Br)cc3F)C2=O)cc1C(C)(F)F (single isomer, unassigned) [Example 12, 1-(4-bromo-2,6-difluorobenzyl)-3-[5-(1,1-difluoroethyl)-6-methoxypyridin-3-yl]-6-fluoro-1,3,4,5-tetrahydro-2H-1-benzazepin-2-one] — higher, > 1 µM
- COc1ncc(C2CCc3c(F)cccc3N(Cc3cc(C#N)ccc3F)C2=O)cc1C(C)(F)F (single isomer, unassigned) [Example 13, 3-({3-[5-(1,1-difluoroethyl)-6-methoxypyridin-3-yl]-6-fluoro-2-oxo-2,3,4,5-tetrahydro-1H-1-benzazepin-1-yl}methyl)-4-fluorobenzonitrile] — higher, > 0.794 µM
- COc1ncc(C2CCc3c(F)cccc3N(Cc3c(F)cc(Br)cc3F)C2=O)cc1S(C)(=O)=O (single isomer, unassigned) [Example 21, 1-(4-bromo-2,6-difluorobenzyl)-6-fluoro-3-[6-methoxy-5-(methylsulfonyl)pyridin-3-yl]-1,3,4,5-tetrahydro-2H-1-benzazepin-2-one] — higher, > 1.58 µM
- COc1ncc(C2CCc3c(F)cccc3N(Cc3c(F)cc(Cl)cc3F)C2=O)cc1S(C)(=O)=O (single isomer, unassigned) [Example 22, 1-(4-chloro-2,6-difluorobenzyl)-6-fluoro-3-[6-methoxy-5-(methylsulfonyl)pyridin-3-yl]-1,3,4,5-tetrahydro-2H-1-benzazepin-2-one] — higher, > 1 µM
- Cc1ncc(C2CCc3c(F)cccc3N(Cc3c(F)cc(Br)cc3F)C2=O)cc1C(C)(F)F (single isomer, unassigned) [Example 35, 1-(4-bromo-2,6-difluorobenzyl)-3-[5-(1,1-difluoroethyl)-6-methylpyridin-3-yl]-6-fluoro-1,3,4,5-tetrahydro-2H-1-benzazepin-2-one] — higher, > 2.51 µM
- Cc1ncc(C2CCc3c(F)cccc3N(Cc3c(F)cc(Br)cc3F)C2=O)cc1C(C)(F)F (single isomer, unassigned) [Example 36, 1-(4-bromo-2,6-difluorobenzyl)-3-[5-(1,1-difluoroethyl)-6-methylpyridin-3-yl]-6-fluoro-1,3,4,5-tetrahydro-2H-1-benzazepin-2-one] — higher, > 2 µM
- Cc1ncc(C2CCc3c(F)cccc3N(Cc3c(F)cc(Br)cc3F)C2=O)cc1S(C)(=O)=O (single isomer, unassigned) [Example 38, 1-(4-bromo-2,6-difluorobenzyl)-6-fluoro-3-[6-methyl-5-(methylsulfonyl)pyridin-3-yl]-1,3,4,5-tetrahydro-2H-1-benzazepin-2-one] — higher, > 0.398 µM
- Cc1ncc(C2CCc3c(F)cccc3N(Cc3c(F)cc(Br)cc3F)C2=O)cc1S(C)(=O)=O (single isomer, unassigned) [Example 39, 1-(4-bromo-2,6-difluorobenzyl)-6-fluoro-3-[6-methyl-5-(methylsulfonyl)pyridin-3-yl]-1,3,4,5-tetrahydro-2H-1-benzazepin-2-one] — higher, > 2.51 µM
- Cc1ccc(N2CCc3c(F)cccc3N(Cc3c(F)cc(Br)cc3F)C2=O)cc1C(C)(F)F [Example 1, 1-(4-bromo-2,6-difluorobenzyl)-3-[3-(1,1-difluoroethyl)-4-methylphenyl]-6-fluoro-1,3,4,5-tetrahydro-2H-1,3-benzodiazepin-2-one] — higher, > 3.16 µM
- [2H]C([2H])([2H])Oc1ncc(N2CCc3c(F)cccc3N(Cc3c(F)cc(Br)cc3F)C2=O)cc1C(C)(F)F [Example 2, 1-(4-bromo-2,6-difluorobenzyl)-3-{5-(1,1-difluoroethyl)-6-[(^2H3)methyloxy]pyridin-3-yl}-6-fluoro-1,3,4,5-tetrahydro-2H-1,3-benzodiazepin-2-one] — higher, > 3.98 µM
- COc1ncc(N2CCc3c(F)cccc3N(Cc3c(F)cc(Br)cc3F)C2=O)cc1C(C)(F)F [Example 3, 1-(4-bromo-2,6-difluorobenzyl)-3-[5-(1,1-difluoroethyl)-6-methoxypyridin-3-yl]-6-fluoro-1,3,4,5-tetrahydro-2H-1,3-benzodiazepin-2-one] — higher, > 0.794 µM
- COc1ccc(CN2C(=O)N(c3cnc(OC)c(C(C)(F)F)c3)CCc3c(F)cccc32)c(F)c1 [Example 4, 3-[5-(1,1-difluoroethyl)-6-methoxypyridin-3-yl]-6-fluoro-1-(2-fluoro-4-methoxybenzyl)-1,3,4,5-tetrahydro-2H-1,3-benzodiazepin-2-one] — higher, > 3.98 µM
- [2H]C([2H])([2H])OCc1cc(F)c(CN2C(=O)N(c3cnc(OC)c(C(C)(F)F)c3)CCc3c(F)cccc32)c(F)c1 [Example 5, 3-[5-(1,1-difluoroethyl)-6-methoxypyridin-3-yl]-1-(2,6-difluoro-4-{[(^2H3)methyloxy]methyl}benzyl)-6-fluoro-1,3,4,5-tetrahydro-2H-1,3-benzodiazepin-2-one] — higher, > 2 µM
- COCc1cc(F)c(CN2C(=O)N(c3cnc(OC)c(C(C)(F)F)c3)CCc3c(F)cccc32)c(F)c1 [Example 7, 3-[5-(1,1-difluoroethyl)-6-methoxypyridin-3-yl]-1-[2,6-difluoro-4-(methoxymethyl)benzyl]-6-fluoro-1,3,4,5-tetrahydro-2H-1,3-benzodiazepin-2-one] — higher, > 3.98 µM
- COc1cc(F)c(CN2C(=O)N(c3cnc(OC)c(C(C)(F)F)c3)CCc3c(F)cccc32)c(F)c1 [Example 8, 3-[5-(1,1-difluoroethyl)-6-methoxypyridin-3-yl]-1-(2,6-difluoro-4-methoxybenzyl)-6-fluoro-1,3,4,5-tetrahydro-2H-1,3-benzodiazepin-2-one] — not separable, > 0.316 µM
- COc1ncc(N2CCc3c(F)cccc3N(Cc3c(F)cc(Cl)cc3F)C2=O)cc1C(C)(F)F [Example 9, 1-(4-chloro-2,6-difluorobenzyl)-3-[5-(1,1-difluoroethyl)-6-methoxypyridin-3-yl]-6-fluoro-1,3,4,5-tetrahydro-2H-1,3-benzodiazepin-2-one] — higher, > 3.16 µM
- COc1ncc(N2CCc3c(F)cccc3N(Cc3ccc(Br)cc3F)C2=O)cc1C(C)(F)F [Example 10, 1-(4-bromo-2-fluorobenzyl)-3-[5-(1,1-difluoroethyl)-6-methoxypyridin-3-yl]-6-fluoro-1,3,4,5-tetrahydro-2H-1,3-benzodiazepin-2-one] — higher, > 2.51 µM
- COc1ncc(N2CCc3c(F)cccc3N(Cc3c(F)cc(Br)cc3F)C2=O)cc1S(C)(=O)=O [Example 14, 1-(4-bromo-2,6-difluorobenzyl)-6-fluoro-3-[6-methoxy-5-(methylsulfonyl)pyridin-3-yl]-1,3,4,5-tetrahydro-2H-1,3-benzodiazepin-2-one] — higher, > 0.794 µM
- COc1cc(F)c(CN2C(=O)N(c3cnc(OC)c(S(C)(=O)=O)c3)CCc3c(F)cccc32)c(F)c1F [Example 15, 6-fluoro-3-[6-methoxy-5-(methylsulfonyl)pyridin-3-yl]-1-(2,3,6-trifluoro-4-methoxybenzyl)-1,3,4,5-tetrahydro-2H-1,3-benzodiazepin-2-one] — higher, > 3.16 µM
- COc1cc(F)c(CN2C(=O)N(c3cnc(OC)c(S(C)(=O)=O)c3)CCc3c(F)cccc32)c(F)c1 [Example 16, 1-(2,6-difluoro-4-methoxybenzyl)-6-fluoro-3-[6-methoxy-5-(methylsulfonyl)pyridin-3-yl]-1,3,4,5-tetrahydro-2H-1,3-benzodiazepin-2-one] — higher, > 3.98 µM
- COc1ncc(N2CCc3c(F)cccc3N(Cc3c(C)cc(Br)cc3F)C2=O)cc1S(C)(=O)=O [Example 17, 1-(4-bromo-2-fluoro-6-methylbenzyl)-6-fluoro-3-[6-methoxy-5-(methylsulfonyl)pyridin-3-yl]-1,3,4,5-tetrahydro-2H-1,3-benzodiazepin-2-one] — higher, > 2.51 µM
